Reference: patent US20250129095A1, “ANNULATED 2-AMINO-3-CYANO THIOPHENES AND DERIVATIVES FOR THE TREATMENT OF CANCER” (Boehringer Ingelheim Int'l GmbH Corp., priority 2021, published 2025)
Values after ≈ are worked out from the molar mass of the structure shown. Like-named read-outs stand apart in the source and are kept apart here.

How the values were obtained:
KRAS G12D Ba/F3 = KRAS G12D Ba/F3 (Homo sapiens, UniProt P01116, G12D, cells depend on it); experiment: Ba/F3 proliferation assay, KRAS G12D; assay type: cell-based; conditions: 72 h, AlamarBlue, read-out: KRAS G12D Ba/F3 IC50
Chain of KRAS G12D Ba/F3 (P01116 whole entry G12D, canonical isoform): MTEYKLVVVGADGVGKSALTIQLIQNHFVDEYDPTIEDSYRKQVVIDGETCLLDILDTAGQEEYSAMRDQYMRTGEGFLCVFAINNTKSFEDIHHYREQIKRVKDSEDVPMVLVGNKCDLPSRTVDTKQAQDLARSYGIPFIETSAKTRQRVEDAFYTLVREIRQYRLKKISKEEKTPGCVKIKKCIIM
Description: (§1) Plasmids containing KRASG12 mutants(i.e. G12D, G12C, G12V) are obtained from GeneScript. To generate KRASG12-dependent Ba/F3 models, Ba/F3 cells are transduced with retroviruses containing vectors that harbor KRASG12 isoforms. Platinum-E cells (Cell Biolabs) are used for retrovirus packaging. Retrovirus is added to Ba/F3 cells. To ensure infection, 4 μg/mL polybrene is added and cells are spinfected. […] Cells with an infection efficiency of 10% to 20% are further cultivated and puromycin selection with 1 μg/mL is initiated. As a control, parental Ba/F3 cells are used to show selection status. Selection is considered successful when parental Ba/F3 cells cultures died. To evaluate the transforming potential of KRASG12 mutations, the growth medium is no longer supplemented with IL-3. Ba/F3 cells harboring the empty vector are used as a control. Approximately ten days before conducting the experiments, puromycin is left out.
(§2) Compounds are added using an Access Labcyte Workstation with a Labcyte Echo 550 or 555 accoustic dispenser. All treatments are performed in technical duplicates. […] AlamarBlue™ (ThermoFisher), a viability stain, is added and fluorescence measured in the PerkinElmer Envision HTS Multilabel Reader. The raw data are imported into and analyzed with the Boehringer Ingelheim proprietary software MegaLab (curve fitting based on the program PRISM, GraphPad Inc.).

KRAS G12C Ba/F3 = KRAS G12C Ba/F3 (Homo sapiens, UniProt P01116, G12C, cells depend on it); experiment: Ba/F3 proliferation assay, KRAS G12C; assay type: cell-based; conditions: 72 h, AlamarBlue, read-out: KRAS G12C Ba/F3 IC50
Chain of KRAS G12C Ba/F3 (P01116 whole entry G12C): as the sequence (P01116 whole entry G12D, canonical isoform) above, with D12C counted along it
Description: as §1, §2

KRAS G12V Ba/F3 = KRAS G12V Ba/F3 (Homo sapiens, UniProt P01116, G12V, cells depend on it); experiment: Ba/F3 proliferation assay, KRAS G12V; assay type: cell-based; conditions: 72 h, AlamarBlue, read-out: KRAS G12V Ba/F3 IC50
Chain of KRAS G12V Ba/F3 (P01116 whole entry G12V): as the sequence (P01116 whole entry G12D, canonical isoform) above, with D12V counted along it
Description: as §1, §2

AsPC-1 cells = experiment: AsPC-1 CTG proliferation assay (120 h) (pancreatic cancer, G12D); assay type: cell-based; conditions: Homo sapiens, ASPC1
Description: The CTG assay is designed to measure quantitatively the proliferation of AsPC-1 cells (ATCC CRL-5985), using the CellTiter Glow Assay Kit (Promega G7571). Cells are grown in RPMI medium (ATCC) supplemented with Fetal Calf Serum (Life Technologies, Gibco BRL, Cat. No. 10270-106). On “day 0” 2000 AsPC-1 cells are seeded in 60 μL RPMI ATCC+10% FCS+ Penstrep in a 384-well plate, flat and clear bottom (Greiner, PNr. 781091). Cells are then incubated in the plates at 37° C. in a CO2 incubator overnight. On day 1, compounds (10 mM stock in DMSO) are added with the ECHO acoustic liquid handler system (Beckman Coulter), including DMSO controls. Plates are incubated for 120 h, and cell viability is measured using CellTiter-Glo luminescent cell viability reagent (Promega product code G7570). Viability (stated as percent of control) is defined as relative luminescence units RLU of each well divided by the RLU of cells in DMSO controls.

[1] = Metabolic (microsomal) stability assay, human liver microsomes (HLM); assay type: in vitro ADME; conditions: 1 μM, predicted clearance as percent of liver blood flow
Description: The metabolic degradation of the test compound is assayed at 37° C. with pooled liver microsomes (mouse (MLM), rat (RLM) or human (HLM)). The final incubation volume of 48 μL per time point contains TRIS buffer (pH 7.5; 0.1 M), magnesium chloride (6.5 mM), microsomal protein (0.5 mg/mL for mouse/rat, 1 mg/mL for human specimens) and the test compound at a final concentration of 1 μM. Following a short preincubation period at 37° C., the reactions are initiated by addition of 12 μL beta-nicotinamide adenine dinucleotide phosphate, reduced form (NADPH, 10 mM) and terminated by transferring an aliquot into solvent after different time points (0, 5, 15, 30, 60 min). Additionally, the NADPH-independent degradation is monitored in incubations without NADPH, terminated at the last time point by addition of acetonitrile. The quenched incubations are pelleted by centrifugation (4,000 rpm, 15 min). An aliquot of the supernatant is assayed by LC-MS/MS to quantify the concentration of parent compound in the individual samples.
In vitro intrinsic clearance (CLint, in vitro) is calculated from the time course of the disappearance of the test drug during the microsomal incubation. Each plot is fitted to the first-order elimination rate constant as C(t)=C0*exp(−ke*t), where C(t) and C0 are the concentration of unchanged test drug at incubation time t and that at preincubation and ke is the disappearance rate constant of the unchanged drug. Subsequently, CLint, in vitro (μL min^−1·amount protein) values are converted to predicted CLint, in vitro (mL min^−1·kg^−1) from incubation parameters according to the equation CLint, in vitro=CLint, in vitro×(incubation volume (ml)/amount protein (mg))×(amount protein (mg)/g liver tissue)×(liver weight/body wt.). For better across species comparison the predicted clearance is expressed as percent of the liver blood flow [% QH](mL min^−1·kg^−1) in the individual species. In general, high stability (corresponding to low % QH) of the compounds across species is desired.

[2] = Plasma protein binding assay (PPB), equilibrium dialysis; assay type: in vitro ADME; conditions: bovine, 10% FCS in PBS, read-out: PPB 10% FCS (% fu)
Description: Binding of test compounds to plasma was determined using equilibrium dialysis (ED) and quantitative mass spectrometry interfaced with liquid chromatography (LC-MS). In brief, ED was performed with dialysis devices consisting of two chambers separated by a semipermeable membrane with a molecular weight cut-off of 5-10 kg/mol. One chamber was filled with 10% FCS in PBS containing 1-10 μmol/L test compound and the other chamber was filled with phosphate-buffer saline (PBS) with or without dextran. The dialysis chamber was incubated for 3-5 hours at 37° C. After incubation, protein was precipitated from aliquots of each chamber and the concentration of test compound in the supernatant of the plasma-containing compartment (cserum) and of the buffer-containing compartment (cbuffer) was determined by LC-MS. The fraction of unbound test compound (not bound to plasma) (fu) was calculated according to the following equation: […]

[3] = Solubility measurement (DMSO solution precipitation method); assay type: physicochemical; conditions: aqueous buffer, kinetic from dmso stock
Description: The DMSO solution is diluted with an aqueous medium (McIlvaine buffer with pH=4.5 or 6.8) to a final concentration of 250 μM. After 24 h of shaking at ambient temperature a potentially formed precipitate is removed by filtration. The concentration of the test compound in the filtrate is determined by LC-UV methods by calibrating the signal to the signal of a reference solution with complete dissolution of the test compound in acetonitrile/water (1:1) with known concentration.

[4] = McIlvaine buffer pH 4.5, 24 h, read-out: Solubility [μg/ml] pH 4.5
[5] = McIlvaine buffer pH 6.8, 24 h, read-out: Solubility [μg/ml] pH 6.8

SMILES	GI50 (KRAS G12D Ba/F3)	GI50 (KRAS G12C Ba/F3)	GI50 (KRAS G12V Ba/F3)	IC50 (AsPC-1 cells)	HLM QH [%] [1]	fraction unbound [2]	solubility at 24 h [3, 4]	solubility at 24 h [3, 5]
C[C@H](Oc1cc(Sc2ncccn2)nc(-c2onc3c2CCC[C@@]32CCCc3sc(N)c(C#N)c32)n1)[C@@H]1CCCN1C [Example I-7]	97 nM	75 nM	31 nM	10300 nM	38%	0.61	> 146 µg/mL	70 µg/mL (≈ 117 µM)
C[C@H](Oc1cc(Nc2ccccn2)nc(-c2onc3c2CCC[C@@]32CCCc3sc(N)c(C#N)c32)n1)[C@@H]1CCCN1C [Example I-6]	47 nM	58 nM	14 nM	3360 nM	<24%	0.31	23 µg/mL (≈ 39.5 µM)	2 µg/mL (≈ 3.43 µM)
C[C@H](Oc1cc(Oc2cncnc2)nc(-c2onc3c2CCC[C@@]32CCCc3sc(N)c(C#N)c32)n1)[C@@H]1CCCN1C [Example I-3]	5 nM	4 nM	2 nM	682 nM	69%	0.57	> 128 µg/mL	> 121 µg/mL
C[C@H](Oc1cc(Oc2cccnc2)nc(-c2onc3c2CCC[C@@]32CCCc3sc(N)c(C#N)c32)n1)[C@@H]1CCCN1C [Example I-2]	6 nM	4 nM	2 nM	1310 nM	70%	0.31	> 125 µg/mL	89 µg/mL (≈ 152 µM)

Further lines, results first:

GI50 (KRAS G12D Ba/F3)	GI50 (KRAS G12C Ba/F3)	GI50 (KRAS G12V Ba/F3)	IC50 (AsPC-1 cells)	HLM QH [%] [1]	fraction unbound [2]	solubility at 24 h [3, 4]	solubility at 24 h [3, 5]	SMILES
37 nM	17 nM	10 nM	966 nM	<24%	0.2	> 157 µg/mL	44 µg/mL (≈ 76.8 µM)	C[C@H](Oc1cc(Nc2ncco2)nc(-c2noc3c2CCC[C@@]32CCCc3sc(N)c(C#N)c32)n1)[C@@H]1CCCN1C [II-13]
22 nM	195 nM	237 nM	277 nM	48%	0.72	> 143 µg/mL	> 126 µg/mL	C[C@H](Oc1cc(OCC2(N(C)C)CC2)nc(-c2noc3c2CCC[C@@]32CCCc3sc(N)c(C#N)c32)n1)[C@@H]1CCCN1C [II-21]
27 nM	17 nM	9 nM	1980 nM	70%	0.12	> 138 µg/mL	42 µg/mL (≈ 73.2 µM)	C[C@H](Oc1cc(Oc2ccon2)nc(-c2noc3c2CCC[C@@]32CCCc3sc(N)c(C#N)c32)n1)[C@@H]1CCCN1C [II-3]
6 nM	22 nM	35 nM	298 nM	53%	0.46	> 168 µg/mL	> 157 µg/mL	C[C@H](Oc1cc(OCC2(N(C)C)COC2)nc(-c2noc3c2CCC[C@@]32CCCc3sc(N)c(C#N)c32)n1)[C@@H]1CCCN1C [II-22]
65 nM	44 nM	11 nM	2920 nM	<24%	0.07	2 µg/mL (≈ 3.4 µM)	< 1 µg/mL	C[C@H](Oc1cc(Nc2nccs2)nc(-c2noc3c2CCC[C@@]32CCCc3sc(N)c(C#N)c32)n1)[C@@H]1CCCN1C [II-12]
38 nM	17 nM	7 nM	2550 nM	31%	0.5	> 140 µg/mL	108 µg/mL (≈ 191 µM)	COCCOc1cc(O[C@@H](C)[C@@H]2CCCN2C)nc(-c2noc3c2CCC[C@@]32CCCc3sc(N)c(C#N)c32)n1 [II-5]
5 nM	219 nM	297 nM	36 nM	37%	0.3	> 171 µg/mL	> 165 µg/mL	CO[C@@H]1C[C@@H]([C@H](C)Oc2cc(O[C@@H]3CNC3(C)C)nc(-c3noc4c3CCC[C@@]43CCCc4sc(N)c(C#N)c43)n2)N(C)C1 [II-30]
